Assay results: US20110269797A1, “ANLN PROTEIN AS AN ENDOCRINE TREATMENT PREDICTIVE FACTOR” (ATLAS ANTIBODIES AB, priority 2008, published 2011)
Entries after “also recorded” stand apart in the source; their conditions may differ.

Columns and labels:
ERα+/PR− tumors = conditions: follow-up period of 6 years, Dowsett 2005; cited from earlier work
breast cancer = conditions: cited from earlier work
[1] = tested on: stage II primary breast carcinoma; experiment: Randomized premenopausal tamoxifen trial, Cohort II TMA, Kaplan-Meier survival analysis by ANLN protein level; assay type: in vivo, human
Text: Median age at diagnosis was 45 (25-57) years. Median follow-up was 13.9 years and less than 2% of the patients had received adjuvant chemotherapy. The study design is described in detail elsewhere (Rydén L et al, Eur J Cancer, 2005, 41(2): 256-64). Ethical permission was obtained from the Local Ethics Committees at Lund and Linkoping Universities.
All cases had been histopathologically re-evaluated on hematoxylin and eosin stained slides. TMA:s were constructed by sampling 2×0.6 mm cores per case from areas representative of invasive cancer, using an automated arraying device (ATA-27, Beecher Inc, Sun Prairie, Wis., USA). The TMA:s were prepared and automated IHC was performed as described in section 3 above, using the ANLN protein antibody prepared as described in section 2 above. IHC staining of ER had been performed previously. In line with current clinical praxis, a cut-off at 10% positive nuclei was used to define hormone receptor positivity.
For statistical analyses, categories were based on nuclear fraction (nf). nf was evaluated as in Examples, section 4, above. As with “the fraction of stained cells” in Examples, Section 3 above, nf was classified as ≦1%, 2-25%, 26-75% or >75%. For this purpose the 2-25% group were split into two groups namely 2-10% and >10-25%. Based on the survival trends for all different strata, dichotomized variables were constructed for further statistical analyses. […] Subsequently, groups denoted “high” or “low” were established based on ANLN protein expression. In a first analysis, the “high” group represented a nuclear fraction (nf) of >1%, and the “low” group a nuclear fraction≦1%. In a second analysis, the “high” group represented a nuclear fraction (nf) of >10%, and the “low” group a nuclear fraction≦10%.
In a third analysis, the “high” group represented a nuclear fraction (nf) of 26%, and the “low” group a nuclear fraction≦25%. This classification of samples was used for OS, RFS and BOSS analysis according to the Kaplan-Meier estimator, and the log-rank test was used to compare survival in different strata. All statistical tests were two-sided, and p-values of <[…] were considered significant. All calculations were made with the statistical package SPSS 16.0 (SPSS Inc. Ill., USA).

primary breast cancer = experiment: Consecutive cohort TMA (Cohort I), survival analysis of tamoxifen-treated ER+ subjects by ANLN protein level; assay type: in vivo, human; conditions: ER+ subjects given adjuvant tamoxifen; cut off nf 1%; FIG. 6, p=0.018
Text: Archival formalin-fixed paraffin-embedded tissue from 498 patients diagnosed with primary breast cancer between 1988 and 1992 was collected from the Department of Pathology, Malmo University Hospital, Sweden. The median age of patients was 65 (range 27-96) years and median follow-up time was 128 months (0-207). Information regarding the date of death was obtained from the regional cause-of-death registries for all patients. Ethical permission was obtained from the Local Ethics Committee of Lund University.
All 498 cases of breast cancer were histopathologically reevaluated on slides stained with hematoxylin and eosin. TMA:s were constructed by sampling 2×1.0 mm cores per case from areas representative of invasive cancer, using a manual arraying device (ATA-27, Beecher Inc, Sun Prairie, Wis., USA). The TMA:s were prepared and automated IHC was performed as described in section 3 above, using the ANLN protein antibody prepared as described in section 2 above. IHC staining of ER had been performed previously. […]
For statistical analyses, the nucleic fraction (nf) level was evaluated, in line with what is described in Examples, Section 3 above. The nuclear fraction was subjectively evaluated in accordance to standards used in clinical histo-pathological diagnostics and outcome was classified as ≦1%, 2-25%, 26-75% or >75%. […]

Row | Structure (SMILES) | recurrence rate compared to patients treated with tamoxifen (ERα+/PR− tumors) | ERα positive patients that do not respond to tamoxifen treatment (breast cancer; Riggins 2007, Gruvberger-Saal 2007) | breast cancer mortality (breast cancer; five years adjuvant treatment after primary surgery, ER positive tumors, irrespective of lymph node status, EBCTCG 1998) | benefit from tamoxifen treatment (RFS, BCSS, OS) ([1]; ER positive ANLN protein low patients (nf≦10%), TAM vs ctrl, FIGS. 14a, 15a, 16a) | impact of tamoxifen treatment on survival (RFS, BCSS, OS) ([1]; ER positive patients with high ANLN protein level (nf>10%), TAM vs ctrl, FIGS. 14b, 15b, 16b) | RFS of ANLN protein low versus ANLN protein high patients treated with tamoxifen ([1]; adjuvant tamoxifen 2 years, cut off 1% and 10%, FIG. 8) | effect of tamoxifen treatment on RFS ([1]; ductal carcinoma subgroup, ANLN protein low (nf≦10%), TAM vs ctrl, FIG. 20a) | impact of tamoxifen treatment on RFS outcome ([1]; ductal carcinoma subgroup, high ANLN protein level (nf>10%), TAM vs ctrl, FIG. 20b) | impact of tamoxifen treatment on RFS outcome ([1]; subjects with high ANLN protein level (nf>10%), TAM 2 years vs ctrl, FIG. 11) | probability of recurrence free survival, ANLN protein low versus high subjects treated with tamoxifen (primary breast cancer)
1 | CC(C)(C#N)c1cc(Cn2cncn2)cc(C(C)(C)C#N)c1 [anastrozole] | halved |  |  |  |  |  |  |  |  | 
2 | CC/C(=C(\c1ccccc1)c1ccc(OCCN(C)C)cc1)c1ccccc1 [tamoxifen] |  | 30-40% | reduces | particularly beneficial; also recorded: at least slightly, benefit | limited or no impact | significantly better | effective | no positive impact on the outcome | no positive impact on the outcome | significantly better
